Measured values taken from BindingDB's records for patent WO2025049746 (Eikon Therapeutics, 2025).

Key:
[1] = biological target: T1, Bifunctional 3'-5' exonuclease/ATP-dependent helicase WRN [480-1251] (UniProt Q14191); assay: Biochemical Activity Assays
T1 construct: 480-1251

[2] = biological target: Bifunctional 3'-5' exonuclease/ATP-dependent helicase WRN (Homo sapiens, UniProt Q14191); assay: ADP-Glo Kinase Assay
Method: ATPase activity was measured using the ADP-Glo Kinase Assay following the manufacturers recommended protocol.

T1 sequence (Q14191 480-1251): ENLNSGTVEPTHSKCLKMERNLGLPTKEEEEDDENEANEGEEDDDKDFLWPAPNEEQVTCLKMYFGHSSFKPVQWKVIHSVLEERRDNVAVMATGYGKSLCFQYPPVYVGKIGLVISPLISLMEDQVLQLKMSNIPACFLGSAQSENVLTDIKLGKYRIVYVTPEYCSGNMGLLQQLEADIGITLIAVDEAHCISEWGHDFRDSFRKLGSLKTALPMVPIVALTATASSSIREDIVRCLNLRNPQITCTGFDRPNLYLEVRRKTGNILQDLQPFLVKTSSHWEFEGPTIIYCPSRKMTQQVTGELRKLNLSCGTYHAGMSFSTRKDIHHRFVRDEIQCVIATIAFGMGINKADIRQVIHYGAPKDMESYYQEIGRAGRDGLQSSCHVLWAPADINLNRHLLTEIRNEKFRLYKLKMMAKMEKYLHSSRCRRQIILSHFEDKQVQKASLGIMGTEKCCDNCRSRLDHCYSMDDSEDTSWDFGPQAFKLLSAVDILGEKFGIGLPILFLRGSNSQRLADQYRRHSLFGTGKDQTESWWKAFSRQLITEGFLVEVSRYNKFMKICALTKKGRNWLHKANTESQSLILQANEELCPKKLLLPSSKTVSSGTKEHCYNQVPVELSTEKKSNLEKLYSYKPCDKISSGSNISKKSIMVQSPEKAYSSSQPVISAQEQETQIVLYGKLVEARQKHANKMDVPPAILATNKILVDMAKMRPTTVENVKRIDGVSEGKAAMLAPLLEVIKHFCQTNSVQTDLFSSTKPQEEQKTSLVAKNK
Bifunctional 3'-5' exonuclease/ATP-dependent helicase WRN, sequence (Q14191 whole entry): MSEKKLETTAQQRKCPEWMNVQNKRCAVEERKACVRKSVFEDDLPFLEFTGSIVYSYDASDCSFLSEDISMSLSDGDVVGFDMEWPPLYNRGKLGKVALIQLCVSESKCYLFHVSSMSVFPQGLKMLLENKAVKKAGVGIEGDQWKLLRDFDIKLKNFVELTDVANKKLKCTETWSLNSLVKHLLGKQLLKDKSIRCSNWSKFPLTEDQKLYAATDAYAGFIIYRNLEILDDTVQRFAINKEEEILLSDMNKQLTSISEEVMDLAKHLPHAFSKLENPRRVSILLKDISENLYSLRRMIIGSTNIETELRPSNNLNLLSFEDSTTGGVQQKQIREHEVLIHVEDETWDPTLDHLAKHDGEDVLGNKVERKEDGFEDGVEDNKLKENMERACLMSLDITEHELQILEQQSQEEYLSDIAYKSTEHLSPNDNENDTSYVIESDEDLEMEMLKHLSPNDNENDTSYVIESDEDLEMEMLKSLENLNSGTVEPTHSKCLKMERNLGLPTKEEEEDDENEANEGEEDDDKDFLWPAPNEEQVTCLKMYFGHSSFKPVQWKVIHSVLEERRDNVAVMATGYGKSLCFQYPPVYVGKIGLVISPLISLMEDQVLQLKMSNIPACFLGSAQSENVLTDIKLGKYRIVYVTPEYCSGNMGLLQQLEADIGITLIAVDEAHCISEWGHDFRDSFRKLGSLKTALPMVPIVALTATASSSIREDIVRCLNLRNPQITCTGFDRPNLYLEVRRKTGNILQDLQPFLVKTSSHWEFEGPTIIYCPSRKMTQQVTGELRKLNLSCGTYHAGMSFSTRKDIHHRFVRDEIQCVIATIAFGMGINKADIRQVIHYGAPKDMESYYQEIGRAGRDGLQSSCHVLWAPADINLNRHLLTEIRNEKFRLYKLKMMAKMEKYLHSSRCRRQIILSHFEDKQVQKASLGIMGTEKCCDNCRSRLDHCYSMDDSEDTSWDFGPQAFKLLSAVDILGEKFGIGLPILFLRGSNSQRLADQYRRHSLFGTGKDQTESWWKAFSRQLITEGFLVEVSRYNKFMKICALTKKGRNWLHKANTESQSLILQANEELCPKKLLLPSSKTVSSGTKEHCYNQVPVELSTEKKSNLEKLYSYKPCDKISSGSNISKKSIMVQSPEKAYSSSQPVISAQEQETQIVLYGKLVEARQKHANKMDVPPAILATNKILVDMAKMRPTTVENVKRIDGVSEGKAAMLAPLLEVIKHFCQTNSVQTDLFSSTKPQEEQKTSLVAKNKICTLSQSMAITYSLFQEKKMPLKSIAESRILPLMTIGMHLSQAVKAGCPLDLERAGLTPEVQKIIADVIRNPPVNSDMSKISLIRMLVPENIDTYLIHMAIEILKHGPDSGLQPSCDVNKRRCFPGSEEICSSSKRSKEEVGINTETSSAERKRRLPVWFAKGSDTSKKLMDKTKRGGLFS

CCc1c(N2CCN(C(=O)c3ncnc(C)c3O)CC2)c(=O)n2nc(-c3cc(C)c4ncccc4c3)nc2n1CC(=O)Nc1ccc(C(F)(F)F)cc1Cl [WO2025049746, Example 336]
IC50 [1]: 60 nM
IC50 [2]: 53 nM

CCc1c(-c2cc3n(n2)CC(=O)N(C)C3)c(=O)n2nc(C3=CCOCC3)nc2n1CC(=O)Nc1ccc(C(F)(F)F)cc1Cl [WO2025049746, Example 338]
IC50 [1]: 29700 nM
IC50 [2]: 29700 nM

CCc1c(N2CCC(N(C)C(=O)c3ncnc(C)c3O)C2)c(=O)n2nc(C3=CCOCC3)nc2n1CC(=O)Nc1ccc(C(F)(F)F)cc1Cl (stereo not drawn) [WO2025049746, Example 339]
IC50 [1]: 2340 nM
IC50 [2]: 29700 nM

CCc1c(N2CCCN(C(=O)c3ncnc(C)c3O)CC2)c(=O)n2nc(C3=CCOCC3)nc2n1CC(=O)Nc1ccc(C(F)(F)F)cc1Cl [WO2025049746, Example 340]
IC50 [1]: 93 nM
IC50 [2]: 166 nM

CCc1c(N2CC[C@@H](C)N(C(=O)c3ncnc(C)c3O)CC2)c(=O)n2nc(C3=CCOCC3)nc2n1CC(=O)Nc1ccc(C(F)(F)F)cc1Cl [WO2025049746, Example 341]
IC50 [1]: 67 nM
IC50 [2]: 80 nM

CCc1c(N2CC[C@H](C)N(C(=O)c3ncnc(C)c3O)CC2)c(=O)n2nc(C3=CCOCC3)nc2n1CC(=O)Nc1ccc(C(F)(F)F)cc1Cl [WO2025049746, Example 342]
IC50 [1]: 420 nM
IC50 [2]: 1800 nM

CCc1c(N2CCN(C(=O)/C=C/C(=O)c3ccc(OC)cc3)CC2)c(=O)n2nc(C3=CCOCC3)nc2n1CC(=O)Nc1ccc(C(F)(F)F)cc1Cl [WO2025049746, Example 344]
IC50 [1]: 242 nM
IC50 [2]: 289 nM

CCc1c(N2CCCC3C2CCN3C(=O)c2ncnc(C)c2O)c(=O)n2nc(C3=CCOCC3)nc2n1CC(=O)Nc1ccc(C(F)(F)F)cc1Cl (stereo not drawn) [WO2025049746, Example 345]
IC50 [1]: 29700 nM
IC50 [2]: 7450 nM

CCc1c(N2CCC3C2CCCN3C(=O)c2ncnc(C)c2O)c(=O)n2nc(C3=CCOCC3)nc2n1CC(=O)Nc1ccc(C(F)(F)F)cc1Cl (stereo not drawn) [WO2025049746, Example 347]
IC50 [1]: 84 nM
IC50 [2]: 132 nM

CCc1c(N2CCN(C(=O)c3ncnc(C)c3O)CC2)c(=O)n2nc(-c3cccc4c3CCO4)nc2n1CC(=O)Nc1ccc(C(F)(F)F)cc1Cl [WO2025049746, Example 348]
IC50 [1]: 62 nM
IC50 [2]: 86 nM

CCc1c(N2CCN(C(=O)c3ncnc(C)c3O)CC2)c(=O)n2nc(C3=CCOCC3)nc2n1CC(=O)NC12CCC(C(F)(F)F)(CC1)CC2 [WO2025049746, Example 349]
IC50 [1]: 994 nM
IC50 [2]: 1950 nM

CCc1c(N2CCN(C(=O)c3ncnc(C)c3O)CC2)c(=O)n2nc(C3=CCOCC3)nc2n1CC(=O)NC1CC2C(C1)C2(F)F (stereo not drawn) [WO2025049746, Example 350]
IC50 [1]: 6000 nM
IC50 [2]: 6830 nM

CCc1c(N2CCN(C(=O)c3ncnc(C)c3O)CC2)c(=O)n2nc(C3=CCOCC3)nc2n1CC(=O)NC1CCC(F)(F)CC1 [WO2025049746, Example 351]
IC50 [1]: 3670 nM
IC50 [2]: 3960 nM

CCc1c(N2CCN(C(=O)c3ncnc(C)c3O)CC2)c(=O)n2nc(C3=CCOCC3)nc2n1CC(=O)NC12CC(C3CCC3)(C1)C2 [WO2025049746, Example 352]
IC50 [1]: 122 nM
IC50 [2]: 174 nM

CCc1c(N2CCN(C(=O)c3ncnc(C)c3O)CC2)c(=O)n2nc(C3=CCOCC3)nc2n1CC(=O)NC12CC(c3ccc(F)cc3)(C1)C2 [WO2025049746, Example 353]
IC50 [1]: 29700 nM
IC50 [2]: 6860 nM

CCc1c(N2CCN(C(=O)c3ncnc(C)c3O)CC2)c(=O)n2nc(C3=CCOCC3)nc2n1CC(=O)Nc1ccc(OC(F)(F)Cl)cc1Cl [WO2025049746, Example 355]
IC50 [1]: 39 nM
IC50 [2]: 49 nM

CCc1c(N2CCN(C(=O)c3ncnc(C)c3O)CC2)c(=O)n2nc(C3=CCOCC3)nc2n1CC(=O)Nc1ccc(SC(F)(F)F)cc1 [WO2025049746, Example 356]
IC50 [1]: 634 nM
IC50 [2]: 875 nM

CCc1c(N2CCN(C(=O)c3ncnc(C)c3O)CC2)c(=O)n2nc(C3=CCOCC3)nc2n1CC(=O)NC1CC2(C1)CC(F)(F)C2 [WO2025049746, Example 357]
IC50 [1]: 5200 nM
IC50 [2]: 4820 nM

CCc1c(N2CCN(C(=O)c3ncnc(C)c3O)CC2)c(=O)n2nc(C3=CCOCC3)nc2n1CC(=O)NC12CC(C3CC3)(C1)C2 [WO2025049746, Example 359]
IC50 [1]: 148 nM
IC50 [2]: 232 nM

CCc1c(N2CCN(C(=O)c3ncnc(C)c3O)CC2)c(=O)n2nc(C3=CCOCC3)nc2n1CC(=O)Nc1ccc(C(F)(F)F)c2cccnc12 [WO2025049746, Example 360]
IC50 [1]: 1990 nM
IC50 [2]: 2140 nM

CCc1c(N2CCN(C(=O)c3ncnc(C)c3O)CC2)c(=O)n2nc(C3=CCOCC3)nc2n1CC(=O)NC12CC(CCC(F)(F)F)(C1)C2 [WO2025049746, Example 361]
IC50 [1]: 29700 nM
IC50 [2]: 29700 nM

CCc1c(N2CCN(C(=O)c3ncnc(C)c3O)CC2)c(=O)n2nc(C3=CCOCC3)nc2n1CC(=O)NC12CCC(C(F)(F)F)(CC1)C2 [WO2025049746, Example 362]
IC50 [1]: 615 nM
IC50 [2]: 1650 nM

CCc1c(N2CCN(C(=O)c3ncnc(C)c3O)CC2)c(=O)n2nc(C3=CCOCC3)nc2n1CC(=O)Nc1ccc(C(F)(F)F)cn1 [WO2025049746, Example 363]
IC50 [1]: 81 nM
IC50 [2]: 155 nM

CCc1c(N2CCN(C(=O)c3ncnc(C)c3O)CC2)c(=O)n2nc(C3=CCOCC3)nc2n1CC(=O)Nc1ccc(SC(F)(F)F)cc1Cl [WO2025049746, Example 364]
IC50 [1]: 30 nM
IC50 [2]: 36 nM

CCc1c(N2CCN(C(=O)c3ncnc(C)c3O)CC2)c(=O)n2nc(C3=CCOCC3)nc2n1CC(=O)Nc1ccc(C(F)(F)F)c2cccnc12 [WO2025049746, Example 365]
IC50 [1]: 44 nM
IC50 [2]: 63 nM

CCc1c(N2CCN(C(=O)c3ncnc(C)c3O)CC2)c(=O)n2nc(C3=CCOCC3)nc2n1CC(=O)NC1CC2(C1)CC2(F)F (stereo not drawn) [WO2025049746, Example 366]
IC50 [1]: 2540 nM
IC50 [2]: 4200 nM

CCc1c(N2CCN(C(=O)c3ncnc(C)c3O)CC2)c(=O)n2nc(C3=CCOCC3)nc2n1CC(=O)Nc1ccc(C(F)(F)F)n(C)c1=O [WO2025049746, Example 367]
IC50 [1]: 8510 nM
IC50 [2]: 29700 nM

CCc1c(N2CCN(C(=O)c3ncnc(C)c3O)CC2)c(=O)n2nc(C3=CCOCC3)nc2n1CC(=O)Nc1ccc(C(F)(F)F)c2scnc12 [WO2025049746, Example 368]
IC50 [1]: 30 nM
IC50 [2]: 36 nM

CCc1c(N2CCN(C(=O)c3ncnc(C)c3O)CC2)c(=O)n2nc(C3=CCOCC3)nc2n1CC(=O)Nc1ccc(OC(F)F)cc1F [WO2025049746, Example 369]
IC50 [1]: 77 nM
IC50 [2]: 85 nM

CCc1c(N2CCN(C(=O)c3ncnc(C)c3O)CC2)c(=O)n2nc(C3=CCOCC3)nc2n1CC(=O)Nc1ccc(OC(F)F)cc1Cl [WO2025049746, Example 370]
IC50 [1]: 161 nM
IC50 [2]: 163 nM

CCc1c(N2CCN(C(=O)c3ncnc(C)c3O)CC2)c(=O)n2nc(C3=CCOCC3)nc2n1CC(=O)NC12CC(C)(C1)C2(F)F [WO2025049746, Example 371]
IC50 [1]: 1110 nM
IC50 [2]: 1480 nM

CCc1c(N2CCN(C(=O)c3ncnc(C)c3O)CC2)c(=O)n2nc(C3=CCOCC3)nc2n1CC(=O)NC1CC2(CC(F)C2)C1 (stereo not drawn) [WO2025049746, Example 372]
IC50 [1]: 1390 nM
IC50 [2]: 1830 nM

CCc1c(N2CCN(C(=O)c3ncnc(C)c3O)CC2)c(=O)n2nc(C3=CCOCC3)nc2n1CC(=O)Nc1c(Cl)cc(C(F)(F)F)c2scnc12 [WO2025049746, Example 373]
IC50 [1]: 51 nM
IC50 [2]: 64 nM

CCc1c(N2CCN(C(=O)c3ncnc(C)c3O)CC2)cn2nc(C3=CCOCC3)nc2c1CC(=O)Nc1ccc(C(F)(F)F)cc1Cl [WO2025049746, Example 374]
IC50 [1]: 29700 nM
IC50 [2]: 29700 nM

Cc1ncnc(C(=O)N2CCN(c3c(OC(F)F)n(CC(=O)Nc4ccc(C(F)(F)F)cc4Cl)c4nc(-c5ccc6c(c5)COC6)nn4c3=O)CC2)c1O [WO2025049746, Example 375]
IC50 [1]: 4900 nM
IC50 [2]: 1140 nM

CCc1c(N2CCN(C(=O)c3ncnc(C)c3O)CC2)c(=O)n2nc(-c3ccc4c(c3)COC4)nc2n1CC(=O)Nc1ccc(C(F)(F)F)c2c1CC2 [WO2025049746, Example 376]
IC50 [1]: 28 nM
IC50 [2]: 36 nM

CCc1c(N2CCN(C(=O)c3ncnc(C)c3O)CC2)c(=O)n2nc(N3CCC3)nc2n1CC(=O)Nc1ccc(C(F)(F)F)c2c1CC2 [WO2025049746, Example 377]
IC50 [1]: 32 nM
IC50 [2]: 45 nM

CCc1c(N2CCN(C(=O)c3ccccc3NS(C)(=O)=O)CC2)c(=O)n2nc(-c3cccc4c3OCCO4)nc2n1CC(=O)Nc1ccc(C(F)(F)F)cc1Cl [WO2025049746, Example 378]
IC50 [1]: 96 nM
IC50 [2]: 154 nM

CCc1c(N2CCN(C(=O)c3ccccc3NS(=O)(=O)C3CC3)CC2)c(=O)n2nc(-c3cccc4c3OCCO4)nc2n1CC(=O)Nc1ccc(C(F)(F)F)cc1Cl [WO2025049746, Example 379]
IC50 [1]: 135 nM
IC50 [2]: 202 nM

CCc1c(N2CCN(C(=O)c3ncnc(C)c3O)CC2)c(=O)n2nc(-c3ccc4c(c3)OCO4)nc2n1CC(=O)Nc1c(Cl)cc(C(F)(F)F)c2c1CC2 [WO2025049746, Example 380]
IC50 [1]: 44 nM
IC50 [2]: 61 nM

CCc1c(N2CCN(C(=O)c3ncnc(C)c3O)CC2)c(=O)n2nc(-c3ccc4c(c3)OCC4)nc2n1CC(=O)Nc1c(Cl)cc(C(F)(F)F)c2c1CC2 [WO2025049746, Example 381]
IC50 [1]: 40 nM
IC50 [2]: 55 nM

CCc1c(N2CCN(C(=O)c3ncnc(C)c3O)CC2)c(=O)n2nc(C3C4COCC43)nc2n1CC(=O)Nc1ccc(C(F)(F)F)c2c1CC2 (stereo not drawn) [WO2025049746, Example 382]
IC50 [1]: 2300 nM
IC50 [2]: 2960 nM

CCc1c(N2CCN(C(=O)c3ncnc(C)c3O)CC2)c(=O)n2nc(-c3ccc4c(c3)CCO4)nc2n1CC(=O)Nc1c(Cl)cc(C(F)(F)F)c2c1CC2 [WO2025049746, Example 383]
IC50 [1]: 74 nM
IC50 [2]: 94 nM

CCc1c(N2CCN(C(=O)c3ncnc(C)c3O)CC2)c(=O)n2nc(-c3ccc4c(c3)COC4)nc2n1CC(=O)Nc1c(Cl)cc(C(F)(F)F)c2c1CC2 [WO2025049746, Example 384]
IC50 [1]: 29 nM
IC50 [2]: 35 nM
